{"source": "patent US10669227B2", "about": "(THE RESEARCH FOUNDATION OF STATE UNIVERSITY OF NEW YORK, priority 2009, dated 2020)", "key": {"MMP-2": {"target": "MMP-2 (Homo sapiens (Human), UniProt P08253)", "sequence (P08253 110-660, species assumed)": "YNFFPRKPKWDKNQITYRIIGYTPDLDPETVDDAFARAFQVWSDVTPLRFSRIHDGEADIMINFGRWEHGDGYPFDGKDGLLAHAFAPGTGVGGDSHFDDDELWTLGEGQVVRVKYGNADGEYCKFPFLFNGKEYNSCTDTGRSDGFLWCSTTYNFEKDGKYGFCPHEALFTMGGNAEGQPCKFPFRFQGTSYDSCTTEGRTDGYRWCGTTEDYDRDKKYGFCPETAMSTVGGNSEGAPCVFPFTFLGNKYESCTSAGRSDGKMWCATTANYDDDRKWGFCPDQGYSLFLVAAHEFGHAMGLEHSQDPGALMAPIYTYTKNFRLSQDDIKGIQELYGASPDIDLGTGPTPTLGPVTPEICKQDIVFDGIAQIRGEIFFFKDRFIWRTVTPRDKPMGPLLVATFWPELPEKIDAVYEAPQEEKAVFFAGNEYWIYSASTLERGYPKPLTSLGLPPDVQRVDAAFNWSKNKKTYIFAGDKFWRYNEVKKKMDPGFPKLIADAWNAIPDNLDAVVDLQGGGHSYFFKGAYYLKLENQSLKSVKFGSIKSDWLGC", "test": "MMP-2 inhibition in vitro, octapeptide substrate, HPLC", "format": "biochemical", "details": "for inhibition at 100 µM: read-out: MMP-2 Maximum Inhibition @100 μM; for MMP-2 Ratio (IC50 test compound/IC50 standard): standard 1,10-phenanthroline"}, "[1]": {"target": "MMP-9 (human leukocyte gelatinase) (Homo sapiens (Human), UniProt P14780)", "sequence (P14780 94-707)": "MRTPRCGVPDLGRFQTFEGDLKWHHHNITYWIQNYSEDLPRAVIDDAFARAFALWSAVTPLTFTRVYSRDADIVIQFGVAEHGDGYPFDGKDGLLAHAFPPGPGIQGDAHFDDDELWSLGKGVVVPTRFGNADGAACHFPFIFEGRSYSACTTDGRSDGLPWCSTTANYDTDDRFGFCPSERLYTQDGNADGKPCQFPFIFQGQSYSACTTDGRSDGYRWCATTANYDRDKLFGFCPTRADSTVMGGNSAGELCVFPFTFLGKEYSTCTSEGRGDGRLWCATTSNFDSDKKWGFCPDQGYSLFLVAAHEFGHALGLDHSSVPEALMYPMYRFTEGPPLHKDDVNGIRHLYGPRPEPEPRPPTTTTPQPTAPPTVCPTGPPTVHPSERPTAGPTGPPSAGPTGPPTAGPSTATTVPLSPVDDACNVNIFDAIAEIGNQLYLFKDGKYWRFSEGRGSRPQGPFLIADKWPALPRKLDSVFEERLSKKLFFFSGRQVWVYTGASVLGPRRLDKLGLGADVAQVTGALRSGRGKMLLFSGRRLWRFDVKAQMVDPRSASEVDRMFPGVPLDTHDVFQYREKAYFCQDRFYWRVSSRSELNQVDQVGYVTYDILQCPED", "test": "MMP-9 inhibition in vitro, octapeptide substrate, HPLC", "format": "biochemical", "details": "read-out: Maximum Inhibition At 100 μM compound (MMP-9)", "from_the_text": "In contrast all three chemically-modified curcumins at 100 μm final concentration inhibited gelatinase activity by 68-100% (FIG. 6 and Table 6)."}, "[2]": {"test": "Solubility in aqueous solutions", "format": "physicochemical", "details": "comparative"}, "TNF-α": {"tested_on": "TNF-α", "test": "Inhibition of TNF-α production by LPS-stimulated monocytes", "format": "cell-based, human", "details": "Homo sapiens, Monocyte, 18 h, read-out: % Inhibition of TNF-α produced by stimulated Monocytes with LPS @ 18 h", "protocol": "(§1) Briefly, human peripheral blood monocytes (HMs) were isolated from a leukocyte concentrate by density gradient centrifugation (Lymphoprep) and the isolated HMs cultured (2 h, 37° C.) to remove non-adherent cells. The adherent HMs wore cultured for 18 h (1×10^6 cells/well, 24-well plates)±endotoxin (LPS)±different compounds dissolved in DMSO (the final concentration of DMSO in the RPMI serum-free culture media with Pen./Strep. antibiotics was no greater than 0.5%). After incubation, the proinflammatory cytokines, TNFα, […], MCP-1 and IL-6 were measured in the conditioned media by ELISA and cytotoxicity was assessed by measuring the absorbance (490 nm) of formazan produced by reduction of MTS. The HMs alone±0.1-0.5% DMSO produced minimal levels of these pro-inflammatory cytokines. However, addition of 100 ng/ml or 10 μg/ml of LPS both dramatically stimulated cytokine production.\nThe cytokine levels were measured by Luminex multiplex, a method that allows the simultaneous measurement of different biological markers."}, "human monocytes": {"tested_on": "human monocytes", "test": "Cytotoxicity in human monocytes (MTS)", "format": "cell-based", "protocol": "as §1, with “The adherent HMs wore cultured for 18 h (1×10^6 cells/well, 24-well plates)±endotoxin (LPS)±different compounds dissolved in DMSO (the final concentration of DMSO in the RPMI serum-free culture media with Pen./Strep. antibiotics was no greater than 0.5%).” left out"}, "MMP-13 (Collagenase-3)": {"target": "MMP-13 (Collagenase-3) (Homo sapiens (Human), UniProt P45452)", "test": "MMP-13 inhibition in vitro, octapeptide substrate, HPLC", "format": "biochemical", "details": "for inhibition at 100 µM: read-out: MMP-13 Maximum Inhibition @100 μM; for MMP-13 Ratio (IC50 test compound/IC50 standard): standard 1,10-phenanthroline"}}}
{"compound": "COc1cc(/C=C/C(=O)CC(=O)/C=C/c2ccc(O)c(OC)c2)ccc1O", "note": "[Curcumin, curcumin]", "values": [{"measurement": "inhibition at 100 µM", "setting": "MMP-2", "value": 54, "unit": "%"}, {"measurement": "inhibition at 100 µM", "setting": "[1]", "value": 58, "unit": "%"}, {"measurement": "Solubility", "setting": "[2]", "value": "insoluble"}, {"measurement": "inhibition at 10 µM", "setting": "TNF-α; 10 uM", "value": 0, "unit": "%"}, {"measurement": "inhibition at 20 µM", "setting": "TNF-α; 20 uM", "value": 0, "unit": "%"}, {"measurement": "inhibition at 50 µM", "setting": "TNF-α; 50 uM", "value": 80, "unit": "%"}, {"measurement": "Cytotoxicity Monocytes @ 5 h incubation", "setting": "human monocytes; 10 uM", "value": 10, "unit": "uM - 0%"}, {"measurement": "Cytotoxicity Monocytes @ 18 h incubation", "setting": "human monocytes; 10 uM", "value": 10, "unit": "uM - 0%"}, {"measurement": "Cytotoxicity Monocytes @ 5 h incubation", "setting": "human monocytes; 20 uM", "value": 20, "unit": "uM - 20%"}, {"measurement": "Cytotoxicity Monocytes @ 18 h incubation", "setting": "human monocytes; 20 uM", "value": 20, "unit": "uM - 20%"}, {"measurement": "Cytotoxicity Monocytes @ 5 h incubation", "setting": "human monocytes; 50 uM", "value": 50, "unit": "uM - 50%"}, {"measurement": "Cytotoxicity Monocytes @ 18 h incubation", "setting": "human monocytes; 50 uM", "value": 50, "unit": "uM - 77%"}, {"measurement": "Cytotoxicity in monocyte culture", "setting": "human monocytes; 50 and 100 μM, with some precipitation", "value": "significant cytotoxicity"}]}
{"compound": "COc1cc(/C=C/C(=O)CC(=O)/C=C/c2ccc(N(C)C)cc2)ccc1O", "note": "[Compound 4]", "values": [{"measurement": "inhibition at 100 µM", "setting": "MMP-2", "value": 36, "unit": "%"}, {"measurement": "MMP-2 Ratio (IC50 test compound/IC50 standard)", "setting": "MMP-2", "value": ">3.6"}, {"measurement": "inhibition at 100 µM", "setting": "[1]", "value": 100, "unit": "%"}, {"measurement": "inhibition at 100 µM", "setting": "MMP-13 (Collagenase-3)", "value": 50, "unit": "%"}, {"measurement": "MMP-13 Ratio (IC50 test compound/IC50 standard)", "setting": "MMP-13 (Collagenase-3)", "value": 62.5}]}
{"compound": "COC(=O)C(C(=O)/C=C/c1ccc(O)cc1)C(=O)/C=C/c1ccc(O)cc1", "note": "[Compound 3, 1,7-Bis(4-hydroxyphenyl)-4-methoxycarbonylhepta-1E,6E-dien-3,5-dione]", "values": [{"measurement": "inhibition at 100 µM", "setting": "MMP-2", "value": 60, "unit": "%"}, {"measurement": "MMP-2 Ratio (IC50 test compound/IC50 standard)", "setting": "MMP-2", "value": 1.0}, {"measurement": "inhibition at 100 µM", "setting": "[1]", "value": 68, "unit": "%"}, {"measurement": "Solubility", "setting": "[2]", "value": "more soluble in aqueous solutions than compound 1"}, {"measurement": "inhibition at 100 µM", "setting": "MMP-13 (Collagenase-3)", "value": 76, "unit": "%"}, {"measurement": "MMP-13 Ratio (IC50 test compound/IC50 standard)", "setting": "MMP-13 (Collagenase-3)", "value": 2.0}]}
{"compound": "COC(=O)C(C(=O)/C=C/c1ccccc1)C(=O)/C=C/c1ccccc1", "note": "[Compound 2]", "values": [{"measurement": "Solubility", "setting": "[2]", "value": "improved solubility"}]}
{"compound": "O=C(/C=C/c1ccc(O)cc1)C(C(=O)/C=C/c1ccc(O)cc1)C(=O)Nc1ccccc1", "note": "[Compound 7, 1,7-Bis(4-hydroxyphenyl)-4-N-phenylaminocarbonylhepta-1E,6E-dien-3,5-dione]", "values": [{"measurement": "inhibition at 100 µM", "setting": "MMP-2", "value": 45, "unit": "%"}, {"measurement": "MMP-2 Ratio (IC50 test compound/IC50 standard)", "setting": "MMP-2", "value": 1.8}, {"measurement": "inhibition at 100 µM", "setting": "MMP-13 (Collagenase-3)", "value": 77, "unit": "%"}, {"measurement": "MMP-13 Ratio (IC50 test compound/IC50 standard)", "setting": "MMP-13 (Collagenase-3)", "value": "<0.3"}]}
{"compound": "CN(C)c1ccc(/C=C/C(=O)C(C(=O)/C=C/c2ccc(N(C)C)cc2)C(=O)Nc2ccccc2)cc1", "note": "[Compound 8, 1,7-Bis(4-dimethylaminophenyl)-4-N-phenylaminocarbonylhepta-1E,6E-dien-3,5-dione]", "values": [{"measurement": "inhibition at 100 µM", "setting": "MMP-13 (Collagenase-3)", "value": 53, "unit": "%"}, {"measurement": "MMP-13 Ratio (IC50 test compound/IC50 standard)", "setting": "MMP-13 (Collagenase-3)", "value": 11.3}]}
{"compound": "c1cnc2c(c1)ccc1cccnc12", "note": "[1,10-phenanthroline, 1,10-O-phenanthroline, reference compound]", "values": [{"measurement": "inhibition at 100 µM", "setting": "MMP-2", "value": 60, "unit": "%"}, {"measurement": "MMP-2 Ratio (IC50 test compound/IC50 standard)", "setting": "MMP-2", "value": 1.0}, {"measurement": "inhibition at 100 µM", "setting": "[1]", "value": 100, "unit": "%"}, {"measurement": "inhibition at 100 µM", "setting": "MMP-13 (Collagenase-3)", "value": 100, "unit": "%"}, {"measurement": "MMP-13 Ratio (IC50 test compound/IC50 standard)", "setting": "MMP-13 (Collagenase-3)", "value": 1.0}]}
{"compound": "COc1cc(/C=C/C(=O)C(C(=O)/C=C/c2ccc(O)c(OC)c2)C(=O)Nc2ccccc2)ccc1O", "note": "[Compound 6, 1,7-Bis(4-hydroxy-3-methoxyphenyl)-4-N-phenylaminocarbonylhepta-1E,6E-dien-3,5-dione]", "values": [{"measurement": "inhibition at 100 µM", "setting": "MMP-2", "value": 53, "unit": "%"}, {"measurement": "inhibition at 100 µM", "setting": "MMP-13 (Collagenase-3)", "value": 100, "unit": "%"}]}
